This note sets out measurements from patent publication EP4227307A1 (Genzyme Corporation, priority 2022, dated 2023).

Where a name gives a salt, the structure may show the parent alone.

For this test, the target named is T1, human recombinant 6His-Nterm SHP2 full-length (Thr2-Arg593) (Homo sapiens, UniProt Q06124).
T1 construct: 6His-Nterm SHP2 full-length (Thr2-Arg593, R&D system); 6His (N); purchased R&D system
T1 sequence (Q06124 2-593): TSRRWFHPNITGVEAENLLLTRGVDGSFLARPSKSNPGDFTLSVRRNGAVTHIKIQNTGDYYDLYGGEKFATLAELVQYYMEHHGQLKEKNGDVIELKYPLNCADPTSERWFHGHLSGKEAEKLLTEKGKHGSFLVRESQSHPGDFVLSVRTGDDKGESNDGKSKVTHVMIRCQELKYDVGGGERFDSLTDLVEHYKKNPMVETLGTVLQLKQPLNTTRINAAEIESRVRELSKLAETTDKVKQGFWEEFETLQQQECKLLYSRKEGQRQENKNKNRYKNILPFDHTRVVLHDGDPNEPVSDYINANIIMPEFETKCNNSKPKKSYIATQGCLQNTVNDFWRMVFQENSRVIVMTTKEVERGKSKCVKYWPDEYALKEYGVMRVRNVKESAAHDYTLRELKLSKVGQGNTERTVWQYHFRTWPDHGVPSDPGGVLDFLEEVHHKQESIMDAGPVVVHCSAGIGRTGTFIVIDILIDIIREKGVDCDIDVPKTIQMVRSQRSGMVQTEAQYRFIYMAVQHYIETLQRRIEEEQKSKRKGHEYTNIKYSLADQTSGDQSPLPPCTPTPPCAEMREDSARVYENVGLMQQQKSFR
In words: SHP2 Phosphatase Assay (DiFMUP fluorescence). The class given is biochemical. To be noted: SHP2 0.2 nM pre-incubated with 100 nM bi-phosphorylated activating peptide; compound 1000-0.05 nM, 30 min pre-incubation; DiFMUP 20 µM, 45 min, room temperature; 10-concentration dose-response. The method, boiled down:
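SHP2 (0.2 nM) preactivated ≥10 min with 100 nM bis-phosphorylated peptide, then 30 min with compound (10 concentrations, 1000–0.05 nM) at room temperature, pH 7.2 HEPES buffer with DTT. DiFMUP (20 µM, added solution) reacted 45 min, pervanadate-stopped; fluorescence 350/450 nm. IC50 by 4-parameter logistic fit.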
The term IC50 denotes the concentration at which inhibition is half-maximal. As for `Cc1nc2c(s1)[C@@H](N)C1(CCN(c3nc(C)c(-c4ccc5nccnc5c4Cl)n4nccc34)CC1)C2` [Compound 81, (6S)-1'-[7-(5-chloroquinoxalin-6-yl)-6-methyl-pyrazolo[1,5-a]pyrazin-4-yl]-2-methyl-spiro [4,6-dihydrocyclopenta[d]thiazole-5,4'-piperidine]-6-amine hydrochloride], the IC50 worked out at 4 nM. The value for `Cc1nc2c(s1)[C@@H](N)C1(CCN(c3nc(C)c(-c4cnn(C)c4C)n4nccc34)CC1)C2` [Compound 82, (6S)-1'-[7-(1,5-dimethylpyrazol-4-yl)-6-methyl-pyrazolo[1,5-a]pyrazin-4-yl]-2-methyl-spiro[4,6-dihydrocyclopenta[d]thiazole-5,4'-piperidine] -6-amine hydrochloride] was 27 nM; that for `Cc1nc2c(s1)[C@@H](N)C1(CCN(c3nc(C)c(-c4ccccc4F)n4nccc34)CC1)C2` [Compound 83, (6S)-1'-[7-(2-fluorophenyl)-6-methyl-pyrazolo[1,5-a]pyrazin-4-yl]-2-methyl-spiro[4,6-dihydrocyclopenta[d]thiazole-5,4'-piperidine]-6-amine hydrochloride] was 10 nM; that for `Cc1nc2c(s1)[C@@H](N)C1(CCN(c3nc(C)c(-c4ccnc(C)c4Cl)n4nccc34)CC1)C2` [Compound 84, (6S)-1'-[7-(3-chloro-2-methyl-4-pyridyl)-6-methyl-pyrazolo[1,5-a]pyrazin-4-yl]-2-methyl-spiro[4,6-dihydrocyclopenta[d]thiazole-5,4'-piperidine]-6-amine hydrochloride] was 5 nM. `COc1cccc(-c2cnc(N3CCC4(CC3)Cc3ncccc3[C@H]4N)c3ccnn23)c1F` [Compound 85, (5S)-1'-[7-(2-fluoro-3-methoxyphenyl)pyrazolo[1,5-a]pyrazin-4-yl]spiro[5,7-dihydrocyclopenta[b]pyridine-6,4'-piperidine] -5-amine hydrochloride]: the IC50 is 27 nM. As for `Cc1nccc(-c2cnc(N3CCC4(CC3)Cc3ncccc3[C@H]4N)c3ccnn23)c1Cl` [Compound 86, (5S)-1'-[7-(3-chloro-2-methyl-4-pyridyl)pyrazolo[1,5-a]pyrazin-4-yl]spiro[5,7-dihydrocyclopenta[b]pyridine-6,4'-piperidine]-5-amine hydrochloride], the IC50 turned out to be 60 nM. Under `N[C@@H]1c2cccnc2CC12CCN(c1ncc(-c3cccc(F)c3Cl)n3nccc13)CC2` [Compound 87, (5 S)-1'-[7-(2-chloro-3-fluorophenyl)pyrazolo[1,5-a]pyrazin-4-yl]spiro [5,7-dihydrocyclopenta[b]pyridine-6,4'-piperidine] -5-amine hydrochloride] stands 22 nM.

For the molecule `Cc1c(-c2cnc(N3CCC4(CC3)Cc3ncccc3[C@H]4N)c3ccnn23)cnn1C` [Compound 88, (5S)-1'-[7-(1,5-dimethylpyrazol-4-yl)pyrazolo [1,5-a]pyrazin-4-yl]spiro[5,7-dihydrocyclopenta[b]pyridine-6,4'-piperidine] -5-amine hydrochloride], the IC50 is 346 nM.

As for `N[C@@H]1c2cccnc2CC12CCN(c1ncc(-c3ccc(F)c4cc[nH]c34)n3nccc13)CC2` [Compound 89, (5S)-1'-[7-(4-fluoro-1H-indol-7-yl)pyrazolo[1,5-a]pyrazin-4-yl]spiro[5,7-dihydrocyclopenta[b]pyridine-6,4'-piperidine] -5-amine hydrochloride], the IC50 came to 9 nM. The value for `N[C@@H]1c2cccnc2CC12CCN(c1ncc(-c3cnn4ccccc34)n3nccc13)CC2` [Compound 90, (5S)-1'-(7-pyrazolo[1,5-a]pyridin-3-ylpyrazolo[1,5-a]pyrazin-4-yl)spiro [5,7-dihydrocyclopenta[b]pyridine-6,4'-piperidine] -5-amine hydrochloride] was 13 nM. Take `Cc1nccc(-c2c(C)nc(N3CCC4(CC3)Cc3ccc(F)cc3[C@H]4N)c3ccnn23)c1Cl` [Compound 91, (1S)-1'-[7-(3-chloro-2-methyl-4-pyridyl)-6-methyl-pyrazolo[1,5-a]pyrazin-4-yl]-6-fluoro-spiro[indane-2,4'-piperidine]-1-amine hydrochloride]: the IC50 amounted to 19 nM.

In the case of `Cc1nccc(-c2c(C)nc(N3CCC4(CC3)Cc3c(F)cccc3[C@H]4N)c3ccnn23)c1Cl` [Compound 92, (1S)-1'-[7-(3-chloro-2-methyl-4-pyridyl)-6-methyl-pyrazolo[1,5-a]pyrazin-4-yl]-4-fluoro-spiro[indane-2,4'-piperidine]-1-amine formate], the IC50 was determined as 8 nM. The value for `Cc1nc(N2CCC3(CC2)Cc2c(F)cccc2[C@H]3N)c2ccnn2c1-c1ccccc1F` [Compound 93, (1S)-4-fluoro-1'-[7-(2-fluorophenyl)-6-methyl-pyrazolo[1,5-a]pyrazin-4-yl]spiro[indane-2,4'-piperidine]-1-amine hydrochloride] was 46 nM. Under `Cc1nc(N2CCC3(CC2)Cc2c(F)cccc2[C@H]3N)c2ccnn2c1-c1cccc(F)c1F` [Compound 94, (1S)-1'-[7-(2,3-difluorophenyl)-6-methyl-pyrazolo[1,5-a]pyrazin-4-yl]-4-fluoro-spiro[indane-2,4'-piperidine]-1-amine formate] stands 146 nM; under `Cc1nc(N2CCC3(CC2)Cc2c(F)cccc2[C@H]3N)c2ccnn2c1-c1cnn(C)c1C` [Compound 95, (1S)-1'-[7-(1,5-dimethylpyrazol-4-yl)-6-methyl-pyrazolo[1,5-a]pyrazin-4-yl]-4-fluoro-spiro[indane-2,4'-piperidine]-1-amine formate], 19 nM. The value for `Cc1nc(N2CCC3(CC2)Cc2c(F)cccc2[C@H]3N)c2ccnn2c1-c1cnn2ccccc12` [Compound 96, (1S)-4-fluoro-1'-(6-methyl-7-pyrazolo[1,5-a]pyridin-3-yl-pyrazolo[1,5-a]pyrazin-4-yl)spiro[indane-2,4'-piperidine]-1-amine formate] was 11 nM; that for `Cc1nc(N2CCC3(CC2)Cc2c(F)cccc2[C@H]3N)c2ccnn2c1-c1cnc(C)n1C` [Compound 97, (1S)-1'-[7-(2,3-dimethylimidazol-4-yl)-6-methyl-pyrazolo[1,5-a]pyrazin-4-yl]-4-fluoro-spiro[indane-2,4'-piperidine]-1-amine hydrochloride] was 42 nM. As to `Cc1cnccc1-c1c(C)nc(N2CCC3(CC2)Cc2ncccc2[C@H]3N)c2ccnn12` [Compound 98, (5S)-1'-[6-methyl-7-(3-methyl-4-pyridyl)pyrazolo[1,5-a]pyrazin-4-yl]spiro [5,7-dihydrocyclopenta[b]pyridine-6,4'-piperidine] -5-amine formate], the IC50 stood at 145 nM. On to `Cc1nc(N2CCC3(CC2)Cc2ncccc2[C@H]3N)c2ccnn2c1-c1cccs1` [Compound 99, (5S)-1'-[6-methyl-7-(2-thienyl)pyrazolo[1,5-a]pyrazin-4-yl]spiro [5,7-dihydrocyclopenta[b]pyridine-6,4'-piperidine]-5-amine hydrochloride], for which the IC50 stood at 9 nM. The value for `Cc1nc(N2CCC3(CC2)Cc2ncccc2[C@H]3N)c2ccnn2c1-c1ccncc1Cl` [Compound 100, (5S)-1'-[7-(3-chloro-4-pyridyl)-6-methyl-pyrazolo[1,5-a]pyrazin-4-yl]spiro[5,7-dihydrocyclopenta[b]pyridine-6,4'-piperidine]-5-amine hydrochloride] was 13 nM. Consider `Cc1nc(N2CCC3(CC2)Cc2cc(F)ccc2[C@H]3N)c2ccnn2c1-c1cnn(C)c1C` [Compound 101, (1S)-1'-[7-(1,5-dimethylpyrazol-4-yl)-6-methyl-pyrazolo[1,5-a]pyrazin-4-yl]-5-fluoro-spiro[indane-2,4'-piperidine]-1-amine hydrochloride], for which the IC50 stood at 15 nM. Turning to `Cc1nc(N2CCC3(CC2)Cc2c(F)cc(F)cc2[C@H]3N)c2ccnn2c1-c1cnn(C)c1C` [Compound 102, (1S)-1'-[7-(1,5-dimethylpyrazol-4-yl)-6-methyl-pyrazolo[1,5-a]pyrazin-4-yl]-4,6-difluoro-spiro[indane-2,4'-piperidine]-1-amine hydrochloride], the IC50 worked out at 17 nM. Under `Cc1nc(N2CCC3(CC2)Cc2ccc(F)cc2[C@H]3N)c2ccnn2c1-c1cnn(C)c1C` [Compound 103, (1S)-1'-[7-(1,5-dimethylpyrazol-4-yl)-6-methyl-pyrazolo[1,5-a]pyrazin-4-yl]-6-fluoro-spiro [indane-2,4'-piperidine]-1-amine hydrochloride] stands 12 nM.

`Cc1nc2c(s1)CC1(CCN(c3nc(C)c(-c4ccccc4F)n4nccc34)CC1)[C@@H]2N` [Compound 104, (4S)-1'-[7-(2-fluorophenyl)-6-methyl-pyrazolo[1,5-a]pyrazin-4-yl]-2-methyl-spiro[4,6-dihydrocyclopenta[d]thiazole-5,4'-piperidine]-4-amine hydrochloride]: the IC50 is 9 nM.
